According to patent US20260184712A1, “Heterocyclic Compounds as ENT Inhibitors and Compounds for Use in the Treatment of Cancers” (iTeos Belgium SA, priority 2022, published 2026):

The molecules below were run against T1, Human ENT2 (Homo sapiens, UniProt Q14542) (assay: Adenosine uptake assay, ENT2-mediated transport in MDCKII cells). Settings: MDCKIIENT2-LV cells, probe adenosine 0.5 μM, pre-incubation 30 min, incubation 10 min.
T1 construct: expressed in transfected cells
T1 sequence (Q14542 1-456): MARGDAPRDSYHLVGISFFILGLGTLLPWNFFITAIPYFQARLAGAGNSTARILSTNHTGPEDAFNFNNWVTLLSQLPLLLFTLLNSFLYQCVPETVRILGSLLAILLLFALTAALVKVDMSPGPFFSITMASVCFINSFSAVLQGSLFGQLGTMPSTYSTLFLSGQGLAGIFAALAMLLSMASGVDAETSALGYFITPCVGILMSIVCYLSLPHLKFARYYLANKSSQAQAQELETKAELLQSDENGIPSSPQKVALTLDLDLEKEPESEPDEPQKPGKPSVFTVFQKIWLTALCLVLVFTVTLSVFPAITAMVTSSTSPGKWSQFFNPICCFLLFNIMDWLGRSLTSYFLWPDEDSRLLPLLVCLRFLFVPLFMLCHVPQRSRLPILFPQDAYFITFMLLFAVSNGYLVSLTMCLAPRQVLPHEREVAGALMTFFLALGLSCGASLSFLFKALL
Assay type: cell-based
Description: The goal of this study was to determine the potency and selectivity of ENT1 inhibitors by measuring ENT1 and ENT2-mediated transport using an in vitro cellular uptake assay.
Human ENT1 and ENT2 transporters were stably expressed in Madin-Darby Canine Kidney II (MDCKII) cells via transduction. Cell lines overexpressing the relevant ENT1 or ENT2 molecules were preincubated with a dose range of the relevant compound for 30 minutes before introduction of the specific substrate at the concentration indicated in the Table assay parameters below. The transporter assay was conducted for the time specified in the Table assay parameters before the specific uptake of the substrate into the cells was quantified. Specific uptake was determined by comparing the uptake from the cells treated with the relevant compounds and the uptake by cells not overexpressing the transporter in question.
Specific uptake for each concentration of the test sample was normalized to the DMSO control value to generate a relative accumulation value (or relative transporter activity). Data were plotted against the log molar concentration of the test reagent used. IC50 values were generated with Prism version 9.4.1 and the following function: log(inhibitor) vs. response—Variable slope (four parameters).

IC50 | Structure (SMILES)
> 1000 nM | C[C@H]1O[C@@H](n2cnc3c(N4CCc5ccc([N+](=O)[O-])cc5C4)ncnc32)[C@H](O)[C@@H]1O [Compound 151]
> 1000 nM | C[C@H]1O[C@@H](n2c(NC3CCC(O)CC3)nc3c(OCc4ccc([N+](=O)[O-])cc4)ncnc32)[C@H](O)[C@@H]1O (some centres unmarked) [Compound 28]
> 1000 nM | C[C@H]1O[C@@H](n2cnc3c(OCc4ccc([N+](=O)[O-])cc4)ncnc32)[C@H](O)[C@@H]1O [Compound 166]
20 to 1000 nM | C[C@H]1O[C@@H](n2c(NC3CCCC3)nc3c(OCc4ccc([N+](=O)[O-])cc4)ncnc32)[C@H](O)[C@@H]1O [Compound 6]
> 1000 nM | C[C@H]1O[C@@H](n2cnc3c(OCc4ccc(OC(F)F)cc4)ncnc32)[C@H](O)[C@@H]1O [Compound 173]
> 1000 nM | OCCOC[C@H]1O[C@@H](n2cnc3c(OCc4ccc(OC(F)(F)F)cc4)ncnc32)[C@H](O)[C@@H]1O [Compound 175]
20 to 1000 nM | C[C@H]1O[C@@H](n2c(N[C@H]3CCC(F)(F)C3)nc3c(OCc4ccc(C#N)cc4)ncnc32)[C@H](O)[C@@H]1O [Compound 82]
20 to 1000 nM | C[C@H]1O[C@@H](n2c(NC3CCOCC3)nc3c(OCc4ccc(OC(F)F)nc4)ncnc32)[C@H](O)[C@@H]1O [Compound 75]
20 to 1000 nM | C[C@H]1O[C@@H](n2c(NC3CCOCC3)nc3c(OCc4ccc(C#N)cc4)ncnc32)[C@H](O)[C@@H]1O [Compound 73]
> 1000 nM | C[C@H]1O[C@@H](n2cnc3c(SCc4ccc([N+](=O)[O-])cc4)ncnc32)[C@H](O)[C@@H]1O [Compound 147]

These molecules were tested on stimulated primary human T cells (assay: T cell proliferation assay, Condition A (X-VIVO15)). Settings: Homo sapiens, T-cell, 96 h; Condition A: X-VIVO15 medium; anti-CD3/anti-CD28 beads, ATP, 4 days; CFSE-lo T cells.
Assay type: cell-based
Procedure, shortened: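 CFSE-labelled human CD3+ T cells (2×10^4/well) in serum-free X-VIVO15 were activated with anti-CD3/CD28 beads (1 bead:2 cells), pre-incubated 30 min with inhibitor, then cultured with 100 uM ATP for 4 days at 37 °C. Flow cytometry measured %CFSE^lo cells, and IC50/IC90 came from log-concentration curve fits.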

Structure (SMILES) | IC50
C[C@H]1O[C@@H](n2cnc3c(N4CCc5ccc([N+](=O)[O-])cc5C4)ncnc32)[C@H](O)[C@@H]1O [Compound 151] | < 1 nM
C[C@H]1O[C@@H](n2c(NC3CCC(O)CC3)nc3c(OCc4ccc([N+](=O)[O-])cc4)ncnc32)[C@H](O)[C@@H]1O (some centres unmarked) [Compound 28] | < 1 nM
C[C@H]1O[C@@H](n2cnc3c(OCc4ccc([N+](=O)[O-])cc4)ncnc32)[C@H](O)[C@@H]1O [Compound 166] | 1 to 20 nM
C[C@H]1O[C@@H](n2c(NC3CCCC3)nc3c(OCc4ccc([N+](=O)[O-])cc4)ncnc32)[C@H](O)[C@@H]1O [Compound 6] | < 1 nM
C[C@H]1O[C@@H](n2cnc3c(OCc4ccc(OC(F)F)cc4)ncnc32)[C@H](O)[C@@H]1O [Compound 173] | 1 to 20 nM
OCCOC[C@H]1O[C@@H](n2cnc3c(OCc4ccc(OC(F)(F)F)cc4)ncnc32)[C@H](O)[C@@H]1O [Compound 175] | 1 to 20 nM
C[C@H]1O[C@@H](n2c(N[C@H]3CCC(F)(F)C3)nc3c(OCc4ccc(C#N)cc4)ncnc32)[C@H](O)[C@@H]1O [Compound 82] | < 1 nM
C[C@H]1O[C@@H](n2c(NC3CCOCC3)nc3c(OCc4ccc(OC(F)F)nc4)ncnc32)[C@H](O)[C@@H]1O [Compound 75] | < 1 nM
C[C@H]1O[C@@H](n2c(NC3CCOCC3)nc3c(OCc4ccc(C#N)cc4)ncnc32)[C@H](O)[C@@H]1O [Compound 73] | < 1 nM
C[C@H]1O[C@@H](n2cnc3c(SCc4ccc([N+](=O)[O-])cc4)ncnc32)[C@H](O)[C@@H]1O [Compound 147] | 1 to 20 nM
